Test results as given in the supplement of paper PMC5770543.
± gives the standard deviation.

Legend:
[1] = test system: Plasmodium falciparum 3D7; assay: EC50 growth inhibition (60 h, SYBR Green); details: stage: ring-stage start
[2] = test system: Toxoplasma gondii RH tachyzoites; assay: % growth inhibition vs DMSO (48 h luciferase); higher = more inhibition; details: 10 µM
[3] = test system: Plasmodium falciparum 3D7; assay: % inhibition of schizont-to-ring transition vs DMSO; higher = more inhibition
Summary of the method: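 Schizont-to-ring transition inhibition is the formation of new rings relative to vehicle controls. Tightly synchronised P. falciparum schizonts at about 40–42 hours post-invasion (1% parasitemia, 2.5% hematocrit, AlbuMAX-supplemented RPMI) were treated with compound at 1, 3 or 10 µM, alongside vehicle and positive controls. After glutaraldehyde fixation, Triton permeabilisation and Hoechst 33342 staining, at least 100,000 events were counted by flow cytometry, and values are the mean of three experiments.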

[4] = test system: Toxoplasma gondii RH tachyzoites; assay: plaque count per well; higher = less inhibition; extreme values may be limits of the assay; details: 10 µM; 8-10 days
Experimental: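 T. gondii RH tachyzoites expressing firefly luciferase were grown in HFF monolayers for 48 h with compound. % growth inhibition at 10 µM and EC50 (2-fold dilutions from 10 µM) were read by luminescence relative to 1% DMSO; EC50 listed as 10 (not determined, <80% inhibition) is left out. Plaque assays: 50 tachyzoites per well with 10 µM compound for 8-10 days, giving plaque count and area by crystal violet/ImageJ. Egress: median time to egress after 1 µM A23187 ionophore following 24 h of 10 µM compound (DMSO ~1.8 min; >10 = no egress within 10 min).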
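For % growth inhibition vs DMSO (48 h luciferase) in this document: tested in triplicate wells of 96-well plates on confluent HFF monolayers, with 1% DMSO wells as negative control in four replicates.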

Compound	EC50 growth inhibition [1]	% growth inhibition [2]	% inhibition of schizont-to-ring transition ([3]; 1 µM)	% inhibition of schizont-to-ring transition ([3]; 3 µM)	% inhibition of schizont-to-ring transition ([3]; 10 µM)	plaque count per well [4]
COC(=O)c1ccc(C2C3=C(O)CC(c4ccc(F)cc4)CC3=Nc3ccccc3N2C(=O)c2ccccc2)cc1 (stereo not given)	6.36 µM	61.3 ± 10%	35.1%	51.7%	56%	
CCCCN(CCCC)S(=O)(=O)c1ccc(NC(=O)c2ccco2)cc1	1.53 µM	74.8 ± 2.1%	20%	26.6%	50.7%	
CCC(c1ccccc1)c1nn2c(-c3cccs3)nnc2s1 (stereo not given)	0.147 µM	67.1 ± 4.9%	48.6%	60%	65.8%	
CC(C)(C)c1ccc(C2CC3=Nc4ccccc4N(C(=O)c4ccccc4Cl)C(c4ccc(F)cc4)C3=C(O)C2)cc1 (stereo not given)	3.41 µM	68.4 ± 10%	< 0%	5.12%	41.6%	
CCOc1cc(Br)c(C(C)NC(=O)c2cccc(OC)c2)cc1OCC (stereo not given)	0.427 µM	34.7 ± 18%	29.1%	67.8%	78%	
CCCCOc1ccc(C(=O)Nc2cc(C)on2)cc1	5.76 µM	< 0%	4.53%	20.6%	35.9%	
Oc1c(CN2CCN(c3ccccc3F)CC2)cc(Br)c2cccnc12	7.42 µM	74.2 ± 13%	7.79%	26.8%	49.7%	
CCCN(CCC)CCCNC(=O)c1cc2c(-c3ccc(OC)c(OC)c3)nn(C)c2s1	1.12 µM	41.4 ± 13%	14.9%	37.6%	68%	
O=C(NCc1ccco1)C1CCN(S(=O)(=O)c2ccc(Cl)cc2)CC1	1.03 µM	55.4 ± 6.6%	21.3%	34.6%	57.8%	
Cc1cc(NC(=O)c2cccc(C(F)(F)F)c2)n(-c2nc(-c3ccc4c(c3)OCO4)cs2)n1		< 0%	13.2%	16.2%	18.9%	26
COc1cccc(C(=O)Nc2ccc(-c3nc4ccccc4[nH]3)cc2)c1	1.62 µM	53.9 ± 1.5%	3.81%	12.6%	34.9%	
COc1ccc(-c2cn3c(C(=O)Nc4ccccc4Cl)c(-c4ccccc4)c4c3n2CCCC4)cc1	7.13 µM	42.7 ± 28%	12.5%	30.4%	62.3%	
O=C(NC1CCCC1)c1ccc(N2CCC(NCc3cccc(C(F)(F)F)c3)CC2)cc1	2.01 µM	74.7 ± 1.2%	0.815%	7.92%	41.6%	
Cc1cc(Nc2ccc(Cl)cc2)n2nc(C(F)(F)F)nc2n1	0.0562 µM	62.7 ± 3.6%	52.9%	59.3%	58.4%	
CCN(CC)CCNc1ncnc2c1[nH]c1ccc(Cl)cc12	0.23 µM	23.3 ± 2.6%	16.1%	52%	66.5%	
Cc1ccc(Nc2nc(-c3ccccn3)cs2)cc1	3.06 µM	99.62 ± 0.17%	24.9%	40.7%	28.2%	
O=C(NCc1ccco1)C1CCN(S(=O)(=O)c2ccc(Br)cc2)CC1	0.397 µM	52.8 ± 11%	14.5%	30.4%	54.8%	

Compound	EC50 growth inhibition [1]	% growth inhibition [2]	% inhibition of schizont-to-ring transition ([3]; 1 µM)	% inhibition of schizont-to-ring transition ([3]; 3 µM)	% inhibition of schizont-to-ring transition ([3]; 10 µM)	plaque count per well [4]
Cc1ccc(-c2nc3ccccc3o2)cc1NCc1cc(Cc2ccccc2)ccc1O		< 0%	36.5%	47.5%	56.6%	36
CCOC(=O)c1cnc2c(C)cc(C)cc2c1Nc1ccc(OC)c(OC)c1	6.69 µM	54.2 ± 2.2%	14.7%	32.9%	45.1%	
CCOc1c(Br)cc(C2C(C(=O)OC)=CN(C)C=C2C(=O)OC)cc1OC	0.48 µM	70.4 ± 17%	49.6%	75.9%	79.6%	
CCOC(=O)c1cnc2c(C)cccc2c1Nc1ccc(C(C)=O)cc1	0.55 µM	79.3 ± 2.5%	28.3%	45.9%	51.5%	
O=C(NNc1cc(N2CCCC2)nc(N2CCCC2)n1)c1ccccc1	6.54 µM	27.4 ± 0.88%	16.2%	24.6%	62.1%	
CCOC(=O)c1ccc2nc(-c3ccccc3)cc(O)c2c1	0.195 µM	72.2 ± 6%	20.2%	29.4%	44.6%	
CN(C)CCNc1cc(-c2ccccc2)nc2ccccc12	0.936 µM	66.7 ± 1.5%	6.36%	21.7%	63.2%	
COc1cccc(Cn2c(Oc3ccccc3)nc3c2c(=O)n(C)c(=O)n3C)c1	0.516 µM	72.4 ± 4.8%	23.6%	27.1%	45.9%	
CCCCOC(=O)c1ccc(Nc2cc(C)nc3ccc(OC)cc23)cc1	0.248 µM	69 ± 12%	29%	59.5%	65.9%	
CCCCCC(=O)N1c2ccccc2N=C2CC(c3ccc(OC)c(OC)c3)CC(O)=C2C1c1ccc(C(F)(F)F)cc1 (stereo not given)	0.205 µM	60.4 ± 3%	47.1%	59.5%	73.2%	
COc1ccc(CCN2C(=O)c3[nH]nc(-c4cc(Cl)c(C)cc4O)c3C2c2ccccc2F)cc1 (stereo not given)		< 0%	20%	20.6%	46.1%	0
CCN(CC)CCCNc1ccnc2cc3ccccc3cc12	0.312 µM	29.2 ± 27%	19.5%	41.2%	42.7%	
CCOc1cc2c(cc1OCC)C(c1cc(Cl)ccc1O)NCC2 (stereo not given)	1.8 µM	46.8 ± 4.8%	3.63%	17.7%	64.1%	
Cc1ccc(N2C(=O)C3C(C2=O)C2(c4ccccc4)C(=O)C3(c3ccccc3)C(c3ccccc3)=C2c2ccccc2)cc1 (stereo not given)	4.25 µM	55.5 ± 9.4%	< 0%	< 0%	24.4%	
CCOc1ccc2c(c1)CN(Cc1ccc(Cl)cc1)CO2	3.96 µM	24.6 ± 13%	< 0%	11.2%	31.5%	
CN1CCN(c2ncnc3c2[nH]c2ccc(Cl)cc23)CC1	0.894 µM	28.6 ± 4.2%	34%	43.8%	54.7%	
C=C(C)CCC(C)N1CCC(N2CCC(C(=O)NCCc3ccccc3)CC2)CC1 (stereo not given)	3.96 µM	20.9 ± 16%	< 0%	1.71%	48%	
